Where two headings read alike, the source gives them in different places.

The nature of the test: Half-life of ADR destruction by UVA light in the presence of test compounds (decrease in absorbance at 480 nm). It counts as physicochemical.
Where [1] appears, read: UVA light, 100 μM test compound alone.
Where [2] appears, read: UVA light, 100 μM test compound with 0.5 μM riboflavin.

Regarding `O=C1CCc2ccccc2N1` [3,4-Dihydro-2(1H)-quinolinone], the “Half-Life of ADR Destruction, 100 μM Test Compound and 0.5 μM Riboflavin” value turned out to be 20.1 min. As for `Nc1cccc(Oc2ccccc2)c1` [3-Phenoxyaniline], the “Half-Life of ADR Destruction, 100 μM Test Compound” value under setting [1] stood at 43.0 min. Under setting [2], the “Half-Life of ADR Destruction, 100 μM Test Compound and 0.5 μM Riboflavin” value was found to be 12.5 min. Regarding `Cn1c2ccccc2c(=O)c2ccccc21` [10-Methyl-9(10H) Acridone], the “Half-Life of ADR Destruction, 100 μM Test Compound” value came to 16.7 min. With `COc1ccc(CCCO)cc1` [3-(4-Methoxyphenyl)-1-Propanol], under setting [1], the “Half-Life of ADR Destruction, 100 μM Test Compound” value turned out to be 43.0 min. Under setting [2], the “Half-Life of ADR Destruction, 100 μM Test Compound and 0.5 μM Riboflavin” value is 1.68 min.

Take `COc1ccc2[nH]cc(CC(=O)O)c2c1` [5-Methoxyindole-3-acetic acid]: the “Half-Life of ADR Destruction, 100 μM Test Compound” value under setting [1] was determined as 17.7 min. Moreover, the “Half-Life of ADR Destruction, 100 μM Test Compound and 0.5 μM Riboflavin” value under setting [2] was 3.67 min. Regarding `CC(=O)Oc1c[nH]c2ccccc12` [3-Acetoxyindole], the “Half-Life of ADR Destruction, 100 μM Test Compound” value under setting [1] was 25.1 min. Also, the “Half-Life of ADR Destruction, 100 μM Test Compound and 0.5 μM Riboflavin” value under setting [2] is 5.90 min. As for `Nc1ccc(CO)cc1` [4-Amino Benzyl Alcohol], under setting [2], the “Half-Life of ADR Destruction, 100 μM Test Compound and 0.5 μM Riboflavin” value amounted to 27.4 min.

As to `O=C1c2c(O)cccc2Cc2cccc(O)c21` [1,8-Dihydroxyanthrone], the “Half-Life of ADR Destruction, 100 μM Test Compound” value under setting [1] turned out to be 27.4 min. Further, under setting [2], the “Half-Life of ADR Destruction, 100 μM Test Compound and 0.5 μM Riboflavin” value is 30.1 min.

In the case of `COc1ccc(C(C)=O)cc1` [4′-Methoxyacetophenone], the “Half-Life of ADR Destruction, 100 μM Test Compound and 0.5 μM Riboflavin” value under setting [2] turned out to be 33.4 min. On to `Nc1cc([N+](=O)[O-])cc([N+](=O)[O-])c1` [3,5-Dinitro Aniline], for which the “Half-Life of ADR Destruction, 100 μM Test Compound and 0.5 μM Riboflavin” value worked out at 75.3 min. On to `CN(C)c1ccc(C(=O)O)cc1` [4-(Dimethylamino) Benzoic Acid], for which, under setting [2], the “Half-Life of ADR Destruction, 100 μM Test Compound and 0.5 μM Riboflavin” value is 75.3 min. With `CC(=O)c1ccc2c(c1)OCCO2` [1,4-Benzodioxane-6-yl methyl ketone], the “Half-Life of ADR Destruction, 100 μM Test Compound” value under setting [1] was 43.0 min. For the same compound, the “Half-Life of ADR Destruction, 100 μM Test Compound and 0.5 μM Riboflavin” value under setting [2] stood at 33.4 min. Take `Cc1c[nH]c(C)c1` [2,4-Dimethyl Pyrrole]: the “Half-Life of ADR Destruction, 100 μM Test Compound and 0.5 μM Riboflavin” value under setting [2] worked out at 20.1 min. As for `O=Cc1c[nH]c2ccccc12` [Indole-3-carboxaldehyde], under setting [2], the “Half-Life of ADR Destruction, 100 μM Test Compound and 0.5 μM Riboflavin” value stood at 30.1 min. In the case of `Cn1c(=O)c2[nH]c(=O)[nH]c2n(C)c1=O` [1,3-Dimethyl Uric acid], the “Half-Life of ADR Destruction, 100 μM Test Compound” value under setting [1] worked out at 75.3 min. Under setting [2], the “Half-Life of ADR Destruction, 100 μM Test Compound and 0.5 μM Riboflavin” value was found to be 21.5 min.

With `CC(=O)Oc1ccc2ccccc2c1` [2-Naphthyl acetate], the “Half-Life of ADR Destruction, 100 μM Test Compound” value (UVA light, test compound alone, +4% DMSO) was found to be 43.0 min. Moreover, the “Half-Life of ADR Destruction, 100 μM Test Compound and 0.5 μM Riboflavin” value (UVA light, with 0.5 μM riboflavin, +4% DMSO) was found to be 33.5 min. As to `Nc1cccc(S(=O)(=O)c2cccc(N)c2)c1` [3,3′-Diamino Phenylsulfone], the “Half-Life of ADR Destruction, 100 μM Test Compound and 0.5 μM Riboflavin” value amounted to 3.81 min. Consider `CCC(=O)c1ccc2cc(OC)ccc2c1` [6-Methoxy-propionaphthone], for which the “Half-Life of ADR Destruction, 100 μM Test Compound” value came to 30.1 min; the “Half-Life of ADR Destruction, 100 μM Test Compound and 0.5 μM Riboflavin” value worked out at 27.4 min. Turning to `O=C(c1ccccc1)c1cccnc1C(=O)O` [3-Benzoylpyridine-2-carboxylic acid], under setting [1], the “Half-Life of ADR Destruction, 100 μM Test Compound” value was found to be 43.0 min. For the same compound, the “Half-Life of ADR Destruction, 100 μM Test Compound and 0.5 μM Riboflavin” value under setting [2] stood at 43.0 min. As to `O=C(O)CCc1ccc(O)c(O)c1` [3-(3,4-Dihydroxyphenyl) Propionic Acid], the “Half-Life of ADR Destruction, 100 μM Test Compound” value under setting [1] amounted to 75.3 min. Consider `NCCc1ccc(O)c(O)c1` [3,4-Dihydroxy Phenethylamine (Dopamine), 3,4-Dihydroxy Phenethylamine], for which the “Half-Life of ADR Destruction, 100 μM Test Compound and 0.5 μM Riboflavin” value under setting [2] was determined as 301.0 min. For `Nc1cc2ccccc2cc1C(=O)O` [3-Atninonaphthalene-2-carboxylic acid], under setting [1], the “Half-Life of ADR Destruction, 100 μM Test Compound” value turned out to be 75.3 min. Besides, under setting [2], the “Half-Life of ADR Destruction, 100 μM Test Compound and 0.5 μM Riboflavin” value is 50.2 min.

Consider `Nc1ccc(C(=O)NCC(=O)O)cc1` [p-Amino hippuric acid], for which the “Half-Life of ADR Destruction, 100 μM Test Compound” value under setting [1] was 50.2 min. Further, the “Half-Life of ADR Destruction, 100 μM Test Compound and 0.5 μM Riboflavin” value under setting [2] was determined as 11.1 min. Consider `Cc1cccc(N)c1` [3-Methyl Aniline], for which the “Half-Life of ADR Destruction, 100 μM Test Compound and 0.5 μM Riboflavin” value turned out to be 33.5 min.

In the case of `Nc1cc(C[C@H](N)C(=O)O)ccc1O` [3-Amino-4-Hydroxy Phenylalanine], under setting [2], the “Half-Life of ADR Destruction, 100 μM Test Compound and 0.5 μM Riboflavin” value stood at 100.3 min.

`COc1cccc(O)c1` [3-Methoxy Phenol]: the “Half-Life of ADR Destruction, 100 μM Test Compound” value under setting [1] is 43.0 min. Regarding `Nc1ccc(CCO)cc1` [4-Amino Phenylethyl Alcohol], the “Half-Life of ADR Destruction, 100 μM Test Compound and 0.5 μM Riboflavin” value under setting [2] came out at 10.8 min. In the case of `O=S(=O)(O)c1ccc2ccccc2c1` [2-Naphthalenesulfonic acid], the “Half-Life of ADR Destruction, 100 μM Test Compound” value under setting [1] is 42.0 min.

For the compound `COc1cccc(N)c1` [3-Methoxy Aniline], under setting [2], the “Half-Life of ADR Destruction, 100 μM Test Compound and 0.5 μM Riboflavin” value amounted to 30.1 min.

Consider `Nc1ccc(CCC(=O)O)cc1` [3-(4-Aminophenyl) Propionic Acid], for which the “Half-Life of ADR Destruction, 100 μM Test Compound and 0.5 μM Riboflavin” value under setting [2] worked out at 6.41 min. The same measure, in the same setting: the result for `c1ccc2occc2c1` [Benzofuran] reads 75.3 min. `O=C(O)c1cccc(C(=O)c2ccccc2)c1` [3-Benzophenone-carboxylic acid]: the “Half-Life of ADR Destruction, 100 μM Test Compound” value turned out to be 20.1 min; the “Half-Life of ADR Destruction, 100 μM Test Compound and 0.5 μM Riboflavin” value was 15.8 min. Regarding `CCc1cccc(N)c1` [3-Ethyl Aniline], the “Half-Life of ADR Destruction, 100 μM Test Compound and 0.5 μM Riboflavin” value under setting [2] came out at 20.1 min.

As for `CC(C(=O)O)c1ccc2c(c1)[nH]c1ccc(Cl)cc12` (stereo not drawn) [6-Chlro-α-methyl-carbazole-2-acetic acid, reference compound], the “Half-Life of ADR Destruction, 100 μM Test Compound and 0.5 μM Riboflavin” value under setting [2] was 25.6 ± 11.2 min.

Take `COc1ccc(C=CCO)cc1O` [3-Hydroxy-4-Methoxy Cinnamyl Alcohol]: the “Half-Life of ADR Destruction, 100 μM Test Compound” value under setting [1] worked out at 50.2 min. Besides, the “Half-Life of ADR Destruction, 100 μM Test Compound and 0.5 μM Riboflavin” value under setting [2] was 50.2 min.

For the compound `OCCCCc1ccccc1` [4-Phenyl-1-Butanol], the “Half-Life of ADR Destruction, 100 μM Test Compound” value under setting [1] was found to be 43.0 min. Also, under setting [2], the “Half-Life of ADR Destruction, 100 μM Test Compound and 0.5 μM Riboflavin” value amounted to 43.0 min. For `Nc1cccc(F)c1` [3-Fluoro Aniline], the “Half-Life of ADR Destruction, 100 μM Test Compound and 0.5 μM Riboflavin” value under setting [2] came to 5.90 min. With `Nc1ccc(C(=O)c2cccc(N)c2)cc1` [3,4′-Diamino-benzophenone], the “Half-Life of ADR Destruction, 100 μM Test Compound and 0.5 μM Riboflavin” value under setting [2] worked out at 15.8 min. For `O=c1nc2[nH]c3ccccc3nc-2c(=O)[nH]1` [Alloxazine], the “Half-Life of ADR Destruction, 100 μM Test Compound” value under setting [1] was determined as 2.21 min. Further, under setting [2], the “Half-Life of ADR Destruction, 100 μM Test Compound and 0.5 μM Riboflavin” value came to 1.89 min. For `CC(C(=O)O)c1ccccc1` (stereo not drawn) [α-Methyl-Phenylacetic Acid], the “Half-Life of ADR Destruction, 100 μM Test Compound and 0.5 μM Riboflavin” value under setting [2] was found to be 50.2 min.

For the compound `COc1ccc2[nH]c3ccccc3c(=O)c2c1` [2-Methoxy-9(10H) Acridone], the “Half-Life of ADR Destruction, 100 μM Test Compound” value turned out to be 23.2 min; the “Half-Life of ADR Destruction, 100 μM Test Compound and 0.5 μM Riboflavin” value was 16.7 min. Turning to Coumaryl Glucose, under setting [1], the “Half-Life of ADR Destruction, 100 μM Test Compound” value turned out to be 43.0 min. Also, the “Half-Life of ADR Destruction, 100 μM Test Compound and 0.5 μM Riboflavin” value under setting [2] is 33.5 min.

As to `Cn1cccc1` [1-Methyl Pyrrole], the “Half-Life of ADR Destruction, 100 μM Test Compound and 0.5 μM Riboflavin” value under setting [2] amounted to 27.4 min. Turning to `COc1cc(C=CC(=O)O)cc(OC)c1O` [3,5-Dimethoxy-4-Hydroxy Cinnamic Acid], the “Half-Life of ADR Destruction, 100 μM Test Compound” value under setting [1] worked out at 75.3 min. For the same compound, the “Half-Life of ADR Destruction, 100 μM Test Compound and 0.5 μM Riboflavin” value under setting [2] is 50.2 min.

As to `CC(C(=O)O)c1ccc(C(=O)c2ccccc2)s1` (stereo not shown) [Tiaprofenic Acid, 2-Benzoyl-5-(x-methyl)-thiopheneacetic acid, reference compound], the “Half-Life of ADR Destruction, 100 μM Test Compound” value under setting [1] was found to be 3.20 min. Also, the “Half-Life of ADR Destruction, 100 μM Test Compound and 0.5 μM Riboflavin” value under setting [2] turned out to be 3.24 min. Regarding `O=C(O)c1ccc2c(c1)C(=O)c1ccccc1-2` [9-Fluorenone-2-carboxylic acid], under setting [2], the “Half-Life of ADR Destruction, 100 μM Test Compound and 0.5 μM Riboflavin” value came to 43.0 min. In the case of `COc1ccc(C=CC(=O)O)cc1OC` [3,4-Dimethoxy Cinnamic Acid], under setting [1], the “Half-Life of ADR Destruction, 100 μM Test Compound” value amounted to 43.0 min. Moreover, the “Half-Life of ADR Destruction, 100 μM Test Compound and 0.5 μM Riboflavin” value under setting [2] is 5.68 min. Consider `Nc1ncnc2c1ncn2[C@@H]1O[C@H](CO)[C@@H](O)[C@H]1O` [Adenine-9-ribose (Adenosine), Adenine-9-ribose, reference compound], for which, under setting [1], the “Half-Life of ADR Destruction, 100 μM Test Compound” value worked out at 50.2 min. Besides, the “Half-Life of ADR Destruction, 100 μM Test Compound and 0.5 μM Riboflavin” value under setting [2] worked out at 43.0 min.

Regarding `Cc1ccc2[nH]cc(C[C@H](N)C(=O)O)c2c1` [5-Methyl-tryptophan], under setting [2], the “Half-Life of ADR Destruction, 100 μM Test Compound and 0.5 μM Riboflavin” value came out at 23.2 min. Regarding `Cc1ccc(C(=O)O)cc1N` [3-Amino-4-Methyl Benzoic Acid], the “Half-Life of ADR Destruction, 100 μM Test Compound and 0.5 μM Riboflavin” value under setting [2] was 13.7 min.

Consider `c1ccc2c3c([nH]c2c1)CCCCCC3` [2,3-Cyclooctenoindole], for which the “Half-Life of ADR Destruction, 100 μM Test Compound and 0.5 μM Riboflavin” value under setting [2] amounted to 15.8 min. `COc1ccc2cc[nH]c2c1` [6-Methoxy Indole]: the “Half-Life of ADR Destruction, 100 μM Test Compound” value under setting [1] came to 33.5 min. For the same compound, the “Half-Life of ADR Destruction, 100 μM Test Compound and 0.5 μM Riboflavin” value under setting [2] worked out at 6.27 min. For the compound `Nc1ccc(C[C@H](N)C(=O)O)cc1` [4-Amino Phenylalanine], the “Half-Life of ADR Destruction, 100 μM Test Compound” value under setting [1] is 55.2 ± 7.1 min. For the same compound, under setting [2], the “Half-Life of ADR Destruction, 100 μM Test Compound and 0.5 μM Riboflavin” value amounted to 7.65 ± 5.46 min. Regarding `O=C(O)c1cc2c(cc1C(=O)O)C(=O)c1ccccc1C2=O` [Anthraquinone-2,3-dicarboxylic acid], the “Half-Life of ADR Destruction, 100 μM Test Compound” value under setting [1] stood at 1.57 min. With `Nc1cc(C(=O)O)ccc1O` [3-Amino-4-Hydroxy Benzoic Acid], the “Half-Life of ADR Destruction, 100 μM Test Compound and 0.5 μM Riboflavin” value under setting [2] came out at 75.3 min.
